The values below come from ChEMBL document CHEMBL2046417, “Synthesis and evaluation of pyridylbenzofuran, pyridylbenzothiazole and pyridylbenzoxazole derivatives as ¹⁸F-PET imaging agents for β-amyloid plaques” (Bioorg Med Chem Lett, 2012).

Assay [1] has as its target T1, Amyloid-beta precursor protein (Homo sapiens, UniProt P05067). The experiment in a line: Binding affinity to amyloid beta(1 to 40) in cortical section isolated from Alzheimer disease patient by autoradiographic analysis. As to conditions: tested as the 3H-labelled form.
Assay [2] deals with T1, Amyloid-beta precursor protein. The experiment in a line: Displacement of [3H]AZD2184 from human amyloid beta(1 to 40). (Loss of bound radioactivity is the signal in a displacement assay; it reports binding, not function.)
Assay [3] has the same target. The assay can be described thus: Binding affinity to amyloid beta(1 to 40) in cortical section isolated from Alzheimer disease patient at 1 nM by autoradiographic analysis.
A further assay relates to Mus musculus. The assay can be described thus: Binding affinity to amyloid beta(1 to 40) in Tg2576 mouse plaque at 150 nmol/kg, iv after 10 mins by autoradiography analysis. The class given is functional, organism-based.

A word on the pIC50: it is the negative decadic logarithm of the IC50, by convention in mol/L. The low end stands for a large IC50, the high end for a small IC50.

pIC50: −log10 of the molar value. Calls of active or inactive are those of the source. The rule behind the calls is not given here.

T1 sequence (P05067 whole entry): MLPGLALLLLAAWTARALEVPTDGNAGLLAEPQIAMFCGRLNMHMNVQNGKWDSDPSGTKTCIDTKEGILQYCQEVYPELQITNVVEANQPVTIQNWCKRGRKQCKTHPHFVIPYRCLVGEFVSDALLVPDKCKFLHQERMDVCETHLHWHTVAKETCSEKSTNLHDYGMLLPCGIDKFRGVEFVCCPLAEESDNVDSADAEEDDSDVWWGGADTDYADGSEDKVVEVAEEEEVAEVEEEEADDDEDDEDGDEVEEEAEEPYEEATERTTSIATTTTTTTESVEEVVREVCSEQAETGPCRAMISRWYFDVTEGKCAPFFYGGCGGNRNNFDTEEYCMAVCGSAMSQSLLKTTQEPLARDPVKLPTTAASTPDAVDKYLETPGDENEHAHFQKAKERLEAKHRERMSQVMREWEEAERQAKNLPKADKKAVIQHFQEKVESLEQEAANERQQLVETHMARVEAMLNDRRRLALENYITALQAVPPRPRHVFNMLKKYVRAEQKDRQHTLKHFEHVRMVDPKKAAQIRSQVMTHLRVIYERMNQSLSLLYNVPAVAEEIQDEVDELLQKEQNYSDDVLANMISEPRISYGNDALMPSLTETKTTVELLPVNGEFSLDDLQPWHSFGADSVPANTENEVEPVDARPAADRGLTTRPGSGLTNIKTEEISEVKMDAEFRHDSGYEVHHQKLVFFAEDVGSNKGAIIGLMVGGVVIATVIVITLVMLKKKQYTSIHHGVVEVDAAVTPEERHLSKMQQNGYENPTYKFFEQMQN

Regarding `COc1ccc2nc(-c3ccc(NCCF)nc3)oc2c1`, the result in assay [1] was inactive. The compound also gave a pIC50 in assay [2] of 7.46.
`Oc1ccc2nc(-c3ccc(NCCF)nc3)sc2c1` gave a pIC50 in assay [2] of 7.48.
`CNc1ccc(-c2nc3ccc(O)cc3s2)cn1` showed a pIC50 in assay [2] of 7.66.
Same read-out and setting: under `Oc1ccc2nc(-c3ccc(NCCF)nc3)oc2c1` stands 6.80.
Same read-out and setting: under `CNc1ncc(-c2cc3cc(O)ccc3o2)cc1F` stands 7.52; under `Oc1ccc2nc(-c3ccc(NCCCF)nc3)sc2c1`, 7.18; under `CNc1ccc(-c2cc3cc(C(N)=O)ccc3o2)c(F)n1`, 7.72.
`CNc1ccc(-c2nc3ccc(O)cc3s2)c(F)n1`: the pIC50 in assay [2] is 6.91.
`CNc1ccc(-c2cc3cc(O)ccc3o2)c(F)n1` [FLUTAFURANOL]: the result (in assay [3] (tested as the 3H-labelled form); with Mus musculus (tested as the 3H-labelled form)) was Active. The compound also gave a pIC50 in assay [2] of 7.62.
In the case of `CNc1ncc(-c2nc3ccc(O)cc3s2)cc1F`, in assay [2], the pIC50 is 7.01.
For the compound `COc1ccc2oc(-c3ccc(C(N)=O)nc3F)cc2c1`, the pIC50 in assay [2] is 7.49.
In assay [2], `Oc1ccc2nc(-c3ccc(NCCCF)nc3)oc2c1` gave a pIC50 of 6.40.
The compound `CNc1ccc(-c2nc3ccc(OC)cc3s2)c(F)n1` had a pIC50 in assay [2] of 7.85.
`NC(=O)c1ccc(-c2cc3cc(O)ccc3o2)c(F)n1`: the pIC50 in assay [2] is 7.36.
With `CNc1ccc(-c2nc3ccc(O)cc3s2)cc1F` [FLUTEMETAMOL], the outcome (in assay [3]; in the assay with Mus musculus) was Active. The pIC50 in assay [2] is 7.62.
In assay [2], `CNc1ccc(-c2cc3cc(C(N)=O)ccc3o2)nc1F` showed a pIC50 of 7.49.
Turning to `CNc1ccc(-c2nc3ccc(O)cc3s2)nc1F`, the pIC50 in assay [2] was 7.36.
`CNc1ccc(-c2cc3cc(O)ccc3o2)nc1F` gave a pIC50 in assay [2] of 7.46.
